In article PMC11062899, “De novo development of small cyclic peptides that are orally bioavailable” (Nature Chemical Biology, 2023):
Values joined by “and” are separate entries in the source; they are usually repeats but may differ in a detail not shown here. Identical values can stand only once.

Experiment: Metabolic stability in rat liver microsomes (RLMs)
Conditions: for TIC value at 0 min: 0 min incubation, Ox (+16)/(+32), deMe (-14)/(-28) = mass adducts (metabolites); for TIC value at 0 min / TIC value at 5 min / TIC value at 15 min / TIC value at 30 min / TIC value at 60 min: LCMS TIC, individual replicates R1-R3, protein 0.5 mg/ml; for TIC value at 5 min: 5 min incubation; for TIC value at 15 min: 15 min incubation; for TIC value at 30 min: 30 min incubation; for TIC value at 60 min: 60 min incubation; for half-life / microsomal CLint: rat, microsomes
[1] = Half Life Mean, rat liver microsomes, mean of R1-R3
[2] = Half Life, rat liver microsomes, individual replicates R1-R3
[3] = RLM CL Mean, rat liver microsomes, mean of R1-R3
[4] = RLM CL, rat liver microsomes, individual replicates R1-R3, incubation volume 400 ul, protein 0.5 mg/ml
[5] = Half-life (T1/2) in RLMs, 10 μM peptide, 37 °C, mean and s.d. of three measurements
[6] = Metabolic stability: Half life T1/2 (min), RLMs, mean and SD, three measurements
[7] = Metabolic stability: RLM CL (ul/min/mg), RLMs, mean and SD, three measurements

Row | Compound | TIC value at 0 min (rat liver microsomes) | TIC value at 5 min (rat liver microsomes) | TIC value at 15 min (rat liver microsomes) | TIC value at 30 min (rat liver microsomes) | TIC value at 60 min (rat liver microsomes) | half-life [1] [min] | half-life [2] [min] | microsomal CLint [3] [µL/min/mg] | microsomal CLint [4] [µL/min/mg] | half-life [5] [min] | half-life [6] [min] | microsomal CLint [7] [µL/min/mg]
1 | O=C(Cc1c[nH]c2ccccc12)N[C@H]1CSCCS(=O)(=O)CCSCCNC(=O)C2(CCCC2)NC(=O)[C@@H]2CCCN2C1=O [compound 5] | 4100940 (2×) and 3001933 | 3877569 and 3883518 and 2646636 | 3731666 and 3678603 and 2895431 | 3163475 and 3179511 and 2181012 | 2955229 and 3322280 and 1801495 | > 60 | > 60 | 14.1 | 12.6 | – | – | –
2 | COc1ccc(CC(=O)N[C@H]2Cc3ccc(cc3)CNC(=O)c3cccc(c3)CNC(=O)CCSCc3ccc(cc3)CSCCNC2=O)cc1OC [peptide 3] | 1629049 (2×) and 1656894 | 1396633 and 1109599 and 1416564 | 688706 and 808072 and 696583 | 432016 and 448206 and 497739 | 192689 and 235300 and 132050 | 16.9 | 15 | 83.8 | 92.5 | 16.9 ± 2.5 | 16.9 ± 2.5 | 84 ± 11
3 | O=C1C[C@@H]2CCCN2C(=O)[C@@H](NC(=O)c2cccc(Cl)c2)CSCc2cccc(n2)CSCCNC(=O)[C@H](Cc2c[nH]c3ccccc23)N1 [compound 7] | 3550654 (2×) and 4325681 | 3349041 and 3673040 and 3817703 | 2080247 and 3097312 and 2624551 | 1705819 and 1909847 and 1817380 | 1049135 and 1421730 and 1465716 | 31.3 | 28.4 | 45.2 | 48.8 | 31 ± 5 | 31 ± 5 | 45 ± 6

Continued, values first:

Row | TIC value at 0 min (rat liver microsomes) | TIC value at 5 min (rat liver microsomes) | TIC value at 15 min (rat liver microsomes) | TIC value at 30 min (rat liver microsomes) | TIC value at 60 min (rat liver microsomes) | half-life [1] [min] | half-life [2] [min] | microsomal CLint [3] [µL/min/mg] | microsomal CLint [4] [µL/min/mg] | half-life [5] [min] | half-life [6] [min] | microsomal CLint [7] [µL/min/mg] | Compound
4 | 15547492 (2×) and 14631455 | 12759369 and 8856874 and 13246148 | 8028101 and 6898172 and 9892349 | 4900968 and 4228902 and 5914854 | 1719220 and 1798352 and 2620253 | 22.3 | 17.3 | 64.1 | 80.2 | 22 ± 4 | 22 ± 4 | 64 ± 11 | Cn1nccc1C(=O)N1CCC2(CC1)NC(=O)[C@H](CC1CCCCC1)NC(=O)CCSCc1cccc(n1)CSCCNC2=O [compound 9]
5 | 4586491 (2×) and 3645847 | 3654952 and 3734486 and 3061802 | 1752251 and 2543021 and 981764 | 740144 and 790714 and 195334 | 105910 and 231909 and 39522 | 11.5 | 11.6 | 123 | 119 | 11 | 11.5 ± 1.7 | 123 ± 18 | O=C1CC2CCN(CC2)C(=O)[C@@H](NC(=O)c2cc(F)cc(F)c2)CSCc2ccc(cc2)CSCCNC(=O)[C@H](Cc2ccccc2)N1 [peptide 1]
6 | 5136707 (2×) and 3317301 | 5335426 and 4509848 and 3329443 | 4513948 and 3668718 and 2626547 | 4035558 and 3666920 and 2228136 | 3223521 and 2515297 and 2382324 | > 60 | > 60 | 17.6 | 15.4 | – | – | 17.6 ± 2.6 | CC(C)[C@@H]1NC(=O)CCSCCS(=O)(=O)CCSCCNC(=O)[C@H](CNC(=O)c2ccco2)NC1=O [compound 10]
7 | 2209118 (2×) and 1061770 | 1524575 and 1610332 and 921634 | 1519207 and 1327718 and 738514 | 1146033 and 1076120 and 486997 | 743609 and 590507 and 376829 | 34.6 | 31.2 | 40.6 | 44.4 | 34 ± 4 | 35 ± 4 | 41 ± 5 | NC(=O)NCCC[C@@H]1NC(=O)C2CN(CCN2C(=O)C2CCCN2S(=O)(=O)c2ccc(F)cc2)C(=O)CCSC/C=C/CSCCNC1=O (stereo partly shown) [peptide 4]
